# Assays:
# CTL (clone BM10-37) = experiment: BLT-Esterase secretion assay in CTL clone; type: cell-based, murine
# Method: (§1) This assay was performed as described in Takayama, H., et al. 1987. Antigen receptor triggered secretion of a trypsin-type esterase from cytotoxic T-lymphocytes. J. Immunol. 138:566. Briefly, effector cells were resuspended in the incubation media and incubated in triplicate in a 96-well plate (Immulon) at a concentration of 10⁵ cells per 100 µl. Phorbol myristate acetate ("PMA"), bryostatin 1 and bryostatin 2 were added at a final concentration of 10 ng/ml, the Ca⁺⁺ ionophore A23187 (free acid, Sigma C7522) was added at a final concentration of 0.5 µ g/ml. Total volume per well was adjusted to 200 µl. After 4 hours of incubation (37°C, 5% CO₂) the plates were spun (1 min., 200 xG) and 50 µl of the supernatant was harvested. Total BLT-E content was determined by solubilizing 10⁵ effector cells with 0.1% Triton X-100 in PBS.
# Using a newly developed BLT-esterase secretion assay (See: Takayama, H., et al, supra). the ability of bryostatins 1 and 2 to activate cytolytic T-cells and to trigger the exocytosis of granules from CTL was tested. […] The combination of bryostatin and Ca⁺⁺-ionophore, however, greatly enhances the activation of CTL and induces significant secretion of granule located enzyme. […] However, when equimolar concentrations of PMA and bryostatin are used, the amount of secreted BLT-Esterase was similar in both combinations.
# 10⁵ CTL (clone BM10-37) was incubated in a 96-well plate and stimulated by the addition of a PMA (10ng/ml) and A23187 (0.5 µg/ml). Specific BLT-E secretion was measured as described above.
# HL-60 cell line = details: cited from earlier work
# [1] = test system: in vivo primed spleen cells; experiment: generation of cytotoxicity in in vivo primed spleen cells (3-day culture, 51Cr-release assay); type: cell-based, B10 mice; details: for development of CTL: 0.78nM present during incubation with 2 U/ml of rIL-2; for Index of Cell Recovery after incubation / Lytic Units Per 10⁷ cells: Media + rIL-2 (2U/ml) + 0.5 ng/ml PK-C activator, 3 days of incubation; for Lytic Units Per 10⁷ cells: P815 target cells
# Method: (§2) Effector cells and ⁵¹Cr-labeled target cells were mixed and incubated in triplicate in a 96-well plate at different E/T ratios as described in Grabstein, K. 1980. Cell-mediated cytolytic responses. In Selected Methods in Cellular Immunology, B. B. Mishel and S. M. Shiigi, eds. (San Francisco, Freeman), pp. 124. The target cell number was 10⁴ cells per well when ⁵¹Cr-release assay was performed with the cytolytic T-cell clones. 5x10³ target cells per well were used when spleen cells and lymph node T-cells were studied as effectors. PMA, bryostatin 1 and bryostatin 2 were added at a final concentration ranging from 0.5 ng/ml to 100 ng/ml. Lectin- dependent cytotoxicity assay was performed by adding 10 µg/ml Con A to the mixture of CTL and ⁵¹Cr-labeled target cells. After incubation, the 96-well plate was centrifuged (1 min, 800 rpm, 4|C), all supernatants were harvested, radioactivity in the samples was counted and the mean values for each triplicate were determined. Percent of specific ⁵¹Cr release was calculated as 100X (a-b)/(t-b), where a is ⁵¹Cr release in the presence of CTL, b is spontaneous release from labeled target cells in the absence of CTL and t is the total number of cpm in the target cells.
# B10 mice were immunized in vivo with 5-7.5x10⁶ irradiated P815 (H-2^d) cells. After 2-3 weeks animals were sacrificed and spleen cells were harvested. Red blood cells were lysed with hypotonic salt solution. Cells were incubated with 100 µl of 1/10 diluted M5/114.15.2 mAb containing ascites per 50x10⁶ cells. Following 30 min at room temperature, cells were washed and 100 µl of MAR 18.5 containing cell supernatant and 100 µl of rabbit complement per 50x10⁶ cells were added. Incubation at 37°C was allowed to proceed for 45 min., dead cells were removed by Hypaque-Ficoll centrifugation, washed and then incubated for three days in RPMI media/10% FCS with or without addition of IL-2, PMA or bryostatin as specified in legends of the drawing. Cytotoxicity against Ag-bearing target cells was measured in a ⁵¹Cr-release assay using P815 mastocytoma cells as targets.
# In vivo primed B10 spleen cells were prepared as described above. After a 3-day culture either in the presence of either rIL-2 or rIL-2 plus protein kinase C activator, cytotoxicity was measured in a ⁵¹Cr release assay at the E/T ratios shown in FIG. 2 using 10⁴ P815 target cells/well. Results of cytotoxicity assay are shown for (A) cells cultured with rIL-2 alone (0 U/ml, 2 U/ml, 10 U/ml, 20 U/ml); (B) cells cultured with rIL-2 plus 0.5 ng/ml bryostatin 1; (C) cells cultured with rIL-2 plus 0.5 ng/ml bryostatin 2; and (D) cells cultured with rIL-2 plus 0.5 ng/ml PMA. […]
# [2] = test system: cytotoxic T-cell clone 2C; experiment: Ag-nonspecific cytotoxicity of CTL clone 2C against EL-4 target cells (51Cr-release); type: cell-based, murine; details: for lysis of EL-4 cells by CTL clone 2C: added to cell mixture, different E/T ratios
# Method: as §2
# No ⁵¹Cr-release was observed when ⁵¹Cr-labeled EL-4 cells ([…]) were mixed with the cytotoxic T-cell clone 2C (anti-H-2L^d) at different E/T ratios.
# CTL 2C clone were incubated 4 hours with ⁵¹Cr-labeled syngeneic EL4 target cells at different E/T ratios in the presence of different concentrations of PMA or bryostatin 2.
# tumor promoters = experiment: antagonism of tumor promoters
# small resting T-cells [3] = experiment: BLT-E content of small resting T-cells after 3-day culture; type: cell-based, BALB/c mice; details: for expression of BLT-E activity in resting T-cells: added alone; for amount of BLT-E on a per cell basis: in combination with IL-4
# Method: as §1
# (§3) Mesenteric lymph nodes were harvested from virus-free BALB/c mice 8-12 weeks of age. After two nylon wool column passages, Ia positive cells were subsequently lysed with the anti-Ia monoclonal antibody M5/114 plus Low-Tox-M rabbit complement as described above. Small dense resting T-cells were then separated by a modified discontinuous Percoll gradient procedure (See: Defranco, et al. 1982. Frequency of B-lymphocytes responsive to antiimmunoglobulin. J. Exp. Med. 155:1523.). Purified T-cells which were harvested in the 66-70% density band were considered to be small resting T-cells.
# (§4) Small resting T-cells were purified from Balb/c mesenteric lymph nodes as described above. Purified cells were cultured for 3 days at a cell concentration of 10⁶ cells/ml either in media alone or in media plus different additions (rIL-2,100 U/ml; BSF-1, 2000 U/ml; bryostatin 1 or 2, 0.5 ng/ml). Cytotoxicity was measured in a 6 hour lectin mediated (Con A, 10 µg/ml) ⁵¹Cr-release assay. Results are shown for an E/T ratio of 100/l. For the determination of BLT-E content, 10⁶ cells of each of tested culture conditions were resuspended in 100 µl of media and solubilized with 1% Triton® X-100. Fifty l of cell suspension was used for measurement of BLT-esterase content as described above. Tested reagents when added alone to the cell cultures neither increased cellular BLT-esterase content nor induced cytotoxicity as shown in FIG. 7.
# CTL OE4 cells = experiment: Ag-specific cytotoxicity of CTL OE4 against P815 cells (51Cr-release); type: cell-based, murine; details: 10 ng/ml, P815 cells with CTL OE4 at various E/T ratios
# Method: Effector cells and ⁵¹Cr-labeled target cells were mixed and incubated in triplicate in a 96-well plate at different E/T ratios as described in Grabstein, K. 1980. Cell-mediated cytolytic responses. In Selected Methods in Cellular Immunology, B. B. Mishel and S. M. Shiigi, eds. (San Francisco, Freeman), pp. 124. The target cell number was 10⁴ cells per well when ⁵¹Cr-release assay was performed with the cytolytic T-cell clones. 5x10³ target cells per well were used when spleen cells and lymph node T-cells were studied as effectors. PMA, bryostatin 1 and bryostatin 2 were added at a final concentration ranging from 0.5 ng/ml to 100 ng/ml. Lectin- dependent cytotoxicity assay was performed by adding 10 µg/ml Con A to the mixture of CTL and ⁵¹Cr-labeled target cells. After incubation, the 96-well plate was centrifuged (1 min, 800 rpm, 4|C), all supernatants were harvested, radioactivity in the samples was counted and the mean values for each triplicate were determined. Percent of specific ⁵¹Cr release was calculated as 100X (a-b)/(t-b), where a is ⁵¹Cr release in the presence of CTL, b is spontaneous release from labeled target cells in the absence of CTL and t is the total number of cpm in the target cells. […]
# OE4 CXTL cells were incubated with 10⁴ Cr labeled P815-cells at different E/T ratios and a ⁵¹Cr-release was measured after 4 hours incubation. […]
# [4] = test system: murine P388 lymphocyte leukemia (PS) system; details: 10-70 µg/kg injection dose levels; cited from earlier work
# P388 in vitro cell line = details: against the P388 in vitro cell line; cited from earlier work
# [5] = test system: M531 murine ovary sarcoma system; parameters: dose or concentration left out as unconfirmed; details: cited from earlier work
# small resting T-cells [6] = experiment: development of cytotoxicity in small resting T-cells (lectin mediated 51Cr-release assay); type: cell-based, BALB/c mice
# Method: as §2, §3, §4
# [7] = 10 ng/ml in combination with Ca⁺⁺ ionophore A23187 0.5 µg/ml
# [8] = bryostatin and BSF-1 added together
Molecule,BLT-E secretion (CTL (clone BM10-37); [7]),"BLT-E secretion (CTL (clone BM10-37); added alone, 10 ng/ml)",induction of differentiation of the HL-60 cell line (HL-60 cell line),development of CTL [1],Index of Cell Recovery after incubation [1],Lytic Units Per 10⁷ cells [1],degree of cytotoxicity obtained with high concentrations of rIL-2 [1],lysis of EL-4 cells by CTL clone 2C [2],antagonism of tumor promoters (tumor promoters),expression of BLT-E activity in resting T-cells (small resting T-cells [3]),amount of BLT-E on a per cell basis (small resting T-cells [3]),Ag-specific ⁵¹Cr-release (CTL OE4 cells),life extension [4],ED₅₀ (P388 in vitro cell line),life extension [5],induction of cytotoxicity in small resting T-cells compared to PMA (small resting T-cells [6]),CTL development in resting T-cells (small resting T-cells [6]; added alone),CTL development in resting T-cells (small resting T-cells [6]; [8]),"level of ⁵¹Cr-release ([2]; 10 ng/ml, compared to same concentration of PMA or bryostatin 1, all E/T ratios (data not shown))","concentration causing maximal activity (lysis of EL-4 cells) ([2]; plateau, 10-fold higher concentration gave no higher cytotoxicity)"
"CCCCCCCCCCCCCC(=O)O[C@@H]1[C@@H](C)[C@@]2(O)[C@@H](C=C(CO)C[C@]3(O)C(=O)C(C)=C[C@@H]23)[C@@H]2C(C)(C)[C@]12OC(C)=O [PMA, 4 β-phorbol-12-myristate 13-acetate, reference compound]",greatly enhanced,slight BLT-Esterase secretion,can be induced,equal in magnitude to that induced by 20 U/ml of IL-2,1.3,71 Lytic Units Per 10⁷ cells,enhanced,–,–,–,–,–,–,–,–,–,–,–,–,–
CCC/C=C/C=C/C(=O)O[C@H]1/C(=C/C(=O)OC)C[C@H]2C[C@H]([C@@H](C)O)OC(=O)C[C@H](O)C[C@@H]3C[C@H](OC(C)=O)C(C)(C)[C@](O)(C[C@@H]4C/C(=C/C(=O)OC)C[C@H](/C=C/C(C)(C)[C@]1(O)O2)O4)O3 [bryostatin 1],slightly lower than that of PMA/Ca²⁺-ionophore,only a slight increase,–,–,0.9,40 Lytic Units Per 10⁷ cells,enhanced,caused the lysis of EL-4 cells in a dose dependent manner,antagonists of tumor promoters,"Neither growth factors (IL-2, IL-4) nor bryostatin 1 and 2 alone induced expression",dramatically increased,slightly but consistently higher inhibition,52-96%,0.89 µg/mL,31-68%,less effective than PMA,failed to induce CTL development,synergized,–,–
bryostatin 2,always less effective,only a slight increase,–,equal in magnitude to that induced by 20 U/ml of IL-2,1.0,70 Lytic Units Per 10⁷ cells,enhanced,caused the lysis of EL-4 cells in a dose dependent manner,antagonists of tumor promoters,"Neither growth factors (IL-2, IL-4) nor bryostatin 1 and 2 alone induced expression",dramatically increased,decreased,–,–,–,consistently induced similar amounts of cytotoxicity,failed to induce CTL development,synergized,consistently lower,10 ng/mL

# — patent publication EP0324574B1, “Immunomodulating bryostatins” (priority 1988, dated 1989)
